Counter-ions that a name gives are not always drawn. Bounds are passed on as bounds.

T1 sequence (P49336 whole entry): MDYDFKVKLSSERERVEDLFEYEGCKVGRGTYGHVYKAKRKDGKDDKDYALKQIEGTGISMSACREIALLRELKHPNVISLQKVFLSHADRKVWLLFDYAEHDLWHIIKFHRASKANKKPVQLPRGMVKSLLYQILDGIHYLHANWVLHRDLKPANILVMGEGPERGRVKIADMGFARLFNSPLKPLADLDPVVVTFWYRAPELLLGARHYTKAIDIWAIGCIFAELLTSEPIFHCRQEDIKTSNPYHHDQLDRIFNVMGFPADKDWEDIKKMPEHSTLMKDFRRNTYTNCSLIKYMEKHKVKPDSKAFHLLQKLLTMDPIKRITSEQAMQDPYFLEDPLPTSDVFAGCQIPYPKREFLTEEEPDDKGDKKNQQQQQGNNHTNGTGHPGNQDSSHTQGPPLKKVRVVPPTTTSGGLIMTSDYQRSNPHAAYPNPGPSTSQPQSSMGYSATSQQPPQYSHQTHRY
T1 sequence (P24863 whole entry partner): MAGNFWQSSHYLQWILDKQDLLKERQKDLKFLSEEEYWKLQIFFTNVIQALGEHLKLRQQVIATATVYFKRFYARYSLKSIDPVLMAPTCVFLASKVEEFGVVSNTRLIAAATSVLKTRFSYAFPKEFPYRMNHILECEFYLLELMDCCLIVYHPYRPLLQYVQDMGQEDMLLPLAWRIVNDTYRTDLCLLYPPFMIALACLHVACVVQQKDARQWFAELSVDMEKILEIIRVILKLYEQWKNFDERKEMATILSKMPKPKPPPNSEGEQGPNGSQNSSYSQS

The first test has as its target T1, CDK8 (CDK8/CycC) (Homo sapiens, UniProt P49336).
T1 construct: purchased Invitrogen PV4402
In words: FRET based Lanthascreen binding competition assay.
Conditions: not given
On the procedure: FRET based Lanthascreen binding competition assay: A dye-labeled ATP competitive probe served as a FRET acceptor upon binding to CDK8 labeled with a strepavidin —Eu-chelate (via abiotinylated anti His antibody). […] In case this probe was competed by an inhibitor as such a signal cannot be generated any more. The CDK8 used for this assay was a protein co-expressed with CycC.
The assay procedure for an assay in a 1536 well plate was performed according to the following: 2 μL CDK8/biotin-anti-His Ab/SA-Eu mix in Assay buffer were pipetted into the wells of a micro plate.
1 μL compound in 20 mM Hepes buffer/5% DMSO was added. The plate was shaken for 30 sec and incubated for 20 min at RT. 2 μL Alexa647-probe in assay buffer were added. The plate was shaken for 30 sec again and incubated for 60 min at RT in the dark. Then the plate was read out on a Perkin Elmer Envision (mode LANCE/TRF, excitation 340 nm emission 650 nm).
Background: TR-FRET usually uses a lanthanide donor and a delayed reading to cut background.
What is called IC50 is the concentration at which inhibition is half-maximal. Turning to `Cn1cc(-c2ccc(-c3cncc4ccc(C(=O)O)cc34)cc2)cn1` [Compound 95, 4-(4-(1-methyl-1H-pyrazol-4-yl)phenyl)isoquinoline-6-carboxylic acid hydrochloride], the IC50 is less than 10 nM.

Still in this test, the particulars now being: 5 nM CDK8/CycC, 10 nM Alexa647-Tracer, 1% DMSO, 60 min at RT; read-out: IC50 CDK8 binding.
Turning to `CN1c2ccc(-c3cncc4ccc(CO)nc34)cc2CS1(=O)=O` [Compound 51, [8-(1-Methyl-2,2-dioxo-2,3-dihydro-1H-benzo[c]isothiazol-5-yl)-[1,6]naphthyridin-2-yl]-methanol], the concentration for half-maximal inhibition (IC50) lay in the range of 10 to 100 nM.

On to `COC1CN(C(=O)c2ccc3cncc(-c4ccc5c(cnn5CC(C)(C)O)c4)c3n2)C1` [Compound 52, (8-(1-(2-hydroxy-2-methylpropyl)-1H-indazol-5-yl)-1,6-naphthyridin-2-yl)(3-methoxyazetidin-1-yl)methanone], for which the half-maximal inhibitory concentration (IC50) lay within 10 to 100 nM.

Consider `CNCc1ccc2cncc(-c3ccc4c(c3)CS(=O)(=O)N4C)c2n1` [Compound 53, Methyl-[8-(1-methyl-2,2-dioxo-2,3-dihydro-1H-benzo[c]isothiazol-5-yl)-[1,6]naphthyridin-2-ylmethyl]-amine], for which the IC50 lay within 10 to 100 nM.

As to `O=C(c1ccc2cnccc2n1)N1CCC[C@H]1c1ccccc1` [Compound 54, (S)-(1,6-naphthyridin-2-yl)(2-phenylpyrrolidin-1-yl)methanone], the half-maximal inhibitory concentration (IC50) was 10 to 100 nM.

In the case of `CNc1ccc2cncc(-c3ccc(-c4cnn(C)c4)cc3)c2n1` [Compound 56, N-methyl-8-(4-(1-methyl-1H-pyrazol-4-yl)phenyl)-1,6-naphthyridin-2-amine], the IC50 lay in the range of 101 to 500 nM.

For the compound `COC1CN(C(=O)c2ccc3cncc(-c4ccc(-c5cc(C(F)(F)F)nn5C)cc4)c3n2)C1` [Compound 57, (3-methoxyazetidin-1-yl)(8-(4-(1-methyl-3-(trifluoromethyl)-1H-pyrazol-5-yl)phenyl)-1,6-naphthyridin-2-yl)methanone], the IC50 was 101 to 500 nM.

On to `CN1c2ccc(-c3cnc(N)c4ccc(CO)nc34)cc2CS1(=O)=O` [Compound 58, [5-Amino-8-(1-methyl-2,2-dioxo-2,3-dihydro-1H-benzo[c]isothiazol-5-yl)-[1,6]naphthyridin-2-yl]-methanol], for which the IC50 lay within 101 to 500 nM.

As for `CN(C)C(=O)c1ccc2c(N)ncc(-c3ccc4c(c3)CS(=O)(=O)N4)c2n1` [Compound 59, 5-amino-8-(2,2-dioxido-1,3-dihydrobenzo[c]isothiazol-5-yl)-N,N-dimethyl-1,6-naphthyridine-2-carboxamide], the IC50 lay within 101 to 500 nM.

In the case of `Cc1ncc(-c2ccc(-c3cnn(C)c3)cc2)c2nc(C(N)=O)ccc12` [Compound 61, 5-Methyl-8-(4-(1-methyl-1H-pyrazol-4-yl)phenyl)-1,6-naphthyridine-2-carboxamide], the IC50 was in the range of 101 to 500 nM.

For `Cc1cncc2ccc(C(=O)N[C@@H](C)c3ccccc3)nc12` [Compound 62, (S)-8-methyl-N-(1-phenylethyl)-1,6-naphthyridine-2-carboxamide], the concentration for half-maximal inhibition (IC50) lay in the range of 101 to 500 nM.

Turning to `CNC(=O)c1ccc2c(O)ncc(-c3ccc4c(c3)CS(=O)(=O)N4)c2n1` [Compound 63, 8-(2,2-dioxido-1,3-dihydrobenzo[c]isothiazol-5-yl)-5-hydroxy-N-methyl-1,6-naphthyridine-2-carboxamide], the half-maximal inhibitory concentration (IC50) is 101 to 500 nM.

On to `Cc1cc(C(N)=O)nc2c(-c3ccc(-c4cnn(C)c4)cc3)cncc12` [Compound 64, 4-Methyl-8-(4-(1-methyl-1H-pyrazol-4-yl)phenyl)-1,6-naphthyridine-2-carboxamide], for which the half-maximal inhibitory concentration (IC50) lay in the range of 101 to 500 nM.

On to `Cc1ccc2cncc(-c3ccc4c(c3)CS(=O)(=O)N4C)c2n1` [Compound 65, 1-Methyl-5-(2-methyl-1,6-naphthyridin-8-yl)-1,3-dihydrobenzo[c]isothiazole 2,2-dioxide], for which the half-maximal inhibitory concentration (IC50) fell in the range of 101 to 500 nM.

For `Cn1cc(-c2ccc(-c3c(Cl)ncc4ccc(C(N)=O)nc34)cc2)cn1` [Compound 66, 7-Chloro-8-(4-(1-methyl-1H-pyrazol-4-yl)phenyl)-1,6-naphthyridine-2-carboxamide], the IC50 was 101 to 500 nM.

Turning to `Cn1cc(-c2ccc(-c3cncc4ccc(C(=O)N5CCC[C@H]5c5ccc(Cl)cc5)nc34)cc2)cn1` [Compound 67, (S)-(2-(4-chlorophenyl)pyrrolidin-1-yl)(8-(4-(1-methyl-1H-pyrazol-4-yl)phenyl)-1,6-naphthyridin-2-yl)methanone], the IC50 lay within 101 to 500 nM.

Regarding `Cn1cc(-c2ccc(-c3c(Cl)ncc4ccc(C(=N)N)nc34)cc2)cn1` [Compound 68, 7-chloro-8-(4-(1-methyl-1H-pyrazol-4-yl)phenyl)-1,6-naphthyridine-2-carboximidamide], the half-inhibitory concentration (IC50) was in the range of 101 to 500 nM.

Take `C[C@H](NC(=O)c1ccc2cncc(Br)c2n1)c1ccccc1` [Compound 70, (S)-8-bromo-N-(1-phenylethyl)-1,6-naphthyridine-2-carboxamide]: the IC50 was 101 to 500 nM.

Take `CN1c2ccc(-c3cncc4ccc(CN)nc34)cc2CS1(=O)=O` [Compound 71, C-[8-(1-Methyl-2,2-dioxo-2,3-dihydro-1H-benzo[c]isothiazol-5-yl)-[1,6]naphthyridin-2-yl]-methylamine]: the 50% inhibitory concentration (IC50) lay in the range of 101 to 500 nM.

With `Cn1cc(-c2ccc(-c3cncc4ccc(N5CCNCC5)nc34)cc2)cn1` [Compound 72, 8-(4-(1-methyl-1H-pyrazol-4-yl)phenyl)-2-(piperazin-1-yl)-1,6-naphthyridine], the half-inhibitory concentration (IC50) is 501 to 1000 nM.

Turning to `COCCNC(=O)c1ccc2cncc(-c3ccc(-c4cnn(C)c4)cc3)c2n1` [Compound 74, N-(2-Methoxyethyl)-8-(4-(1-methyl-1H-pyrazol-4-yl)phenyl)-1,6-naphthyridine-2-carboxamide], the IC50 is less than 10 nM.

`CN(O)C(=O)c1ccc2cncc(-c3ccc(-c4cnn(C)c4)cc3)c2n1` [Compound 76, N-Hydroxy-N-methyl-8-(4-(1-methyl-1H-pyrazol-4-yl)phenyl)-1,6-naphthyridine-2-carboxamide]: the half-inhibitory concentration (IC50) is less than 10 nM.

Turning to `Cn1cc(-c2ccc(-c3cncc4ccc(S)nc34)cc2)cn1` [Compound 77, 8-(4-(1-methyl-1H-pyrazol-4-yl)phenyl)-1,6-naphthyridine-2-thiol], the IC50 was 10 to 100 nM.

As for `Cn1cc(-c2ccc(-c3cncc4ccc(O)nc34)cc2)cn1` [Compound 79, 8-(4-(1-methyl-1H-pyrazol-4-yl)phenyl)-1,6-naphthyridin-2-ol], the IC50 fell in the range of 501 to 1000 nM.

On to `COc1ccc(CNC(=O)c2ccc3cncc(-c4ccc(-c5cnn(C)c5)cc4)c3n2)cc1` [Compound 81, N-(4-methoxybenzyl)-8-(4-(1-methyl-1H-pyrazol-4-yl)phenyl)-1,6-naphthyridine-2-carboxamide], for which the IC50 was in the range of 10 to 100 nM.

As for `Cn1cc(-c2ccc(-c3cncc4ccc(C(=O)N5CCCC(F)(F)C5)nc34)cc2)cn1` [Compound 82, (3,3-difluoropiperidin-1-yl)(8-(4-(1-methyl-1H-pyrazol-4-yl)phenyl)-1,6-naphthyridin-2-yl)methanone], the IC50 was 10 to 100 nM.

Consider `Cc1cncc2ccc(C(=O)N3CCC[C@H]3c3ccc(Cl)cc3)nc12` [Compound 83, (S)-(2-(4-chlorophenyl)pyrrolidin-1-yl)(8-methyl-1,6-naphthyridin-2-yl)methanone], for which the IC50 is less than 10 nM.

Take `O=C(c1ccc2cnccc2n1)N1CCC[C@H]1c1ccc(Br)cc1` [Compound 84, (S)-(2-(4-bromophenyl)pyrrolidin-1-yl)(1,6-naphthyridin-2-yl)methanone]: the half-inhibitory concentration (IC50) was 10 to 100 nM.

As for `Cn1cc(-c2ccc(-c3cncc4ccc(C(=O)NCc5ccc(C(F)(F)F)cc5)nc34)cc2)cn1` [Compound 87, 8-(4-(1-methyl-1H-pyrazol-4-yl)phenyl)-N-(4-(trifluoromethyl)benzyl)-1,6-naphthyridine-2-carboxamide], the IC50 lay in the range of 10 to 100 nM.

Take `Cc1cnc(N)c2ccc(C(=O)N3CCC[C@H]3c3ccc(Cl)cc3)nc12` [Compound 88, (S)-(5-amino-8-methyl-1,6-naphthyridin-2-yl)(2-(4-chlorophenyl)pyrrolidin-1-yl)methanone]: the IC50 lay in the range of 10 to 100 nM.

`O=C(c1ccc2cncc(Br)c2n1)N1CCC[C@H]1c1ccc(Br)cc1` [Compound 89, (S)-(8-bromo-1,6-naphthyridin-2-yl)(2-(4-bromophenyl)pyrrolidin-1-yl)methanone]: the 50% inhibitory concentration (IC50) is 10 to 100 nM.

In the case of `O=C(c1ccc2cncc(Br)c2n1)N1CCC[C@H]1c1ccc(F)cc1` [Compound 90, (S)-(8-bromo-1,6-naphthyridin-2-yl)(2-(4-fluorophenyl)pyrrolidin-1-yl)methanone], the IC50 is 10 to 100 nM.

Take `O=C(c1ccc2cncc(Br)c2n1)N1CCC[C@H]1c1ccc(C(F)(F)F)cc1` [Compound 91, (S)-(8-bromo-1,6-naphthyridin-2-yl)(2-(4-(trifluoromethyl)phenyl)pyrrolidin-1-yl)methanone]: the IC50 lay within 10 to 100 nM.

Regarding `Cc1cncc2ccc(C(=O)N3CCC[C@H]3c3ccc(Br)cc3)nc12` [Compound 92, (S)-(2-(4-bromophenyl)pyrrolidin-1-yl)(8-methyl-1,6-naphthyridin-2-yl)methanone], the 50% inhibitory concentration (IC50) is less than 10 nM.

Consider `CN1c2ccc(-c3cncc4ccc(-c5nccn5C)cc34)cc2CS1(=O)=O` [Compound 93, 1-methyl-5-(6-(1-methyl-1H-imidazol-2-yl)isoquinolin-4-yl)-1,3-dihydrobenzo[c]isothiazole 2,2-dioxide], for which the IC50 is less than 10 nM.

With `Cn1cc(-c2ccc(-c3cncc4ccc(C(N)=O)cc34)cc2)cn1` [Compound 96, 4-(4-(1-methyl-1H-pyrazol-4-yl)phenyl)isoquinoline-6-carboxamide], the IC50 was less than 10 nM.

The values are drawn from patent US20160016951A1 (Merck Patent GmbH, priority 2014, published 2016).
